Experiments:
[1] = system: serotonin hydrochloride-induced scratching behaviour in rats; assay: Antipruritic effect of single administration in rat models with pruritus induced by serotonin hydrochloride; format: in vivo, SD rats; conditions: intravenous
Experimental: SD rats (males) from Beijing Vital River Laboratory Animal Technology Co., Ltd. were randomly grouped, and then administered intravenously with different doses of compound 1 or normal saline. After 15 min, 10 μL of 2% serotonin hydrochloride (Sigma) was injected intradermally into the nape of the rats, and the times of scratching of rats within 60 min after injection of serotonin hydrochloride was immediately recorded. The obtained data were processed according to the formula [(times of scratching in solvent control group−times of scratching in administration group)/times of scratching in solvent control group×100] to calculate the inhibition ratio on scratching. Statistical analysis was performed with Graphpad Prism 8 software, and fitting was performed to obtain the ED50 value.

[2] = system: compound 48/80-induced scratching behaviour in mice; assay: Antipruritic effect by nasal drip in mouse models with pruritus induced by compound 48/80; format: in vivo, ICR mice
Experimental: (§1) ICR mice (males) from Beijing Vital River Laboratory Animal Technology Co., Ltd. were randomly grouped, and then different doses of compound 1 or normal saline were administered by nasal drip. After 15 min, 50 μg of compound 48/80 (Sigma, Cat #: C2313) was injected subcutaneously into the nape of the mice, and the times of scratching of mice within 30 min after injection of compound 48/80 was immediately recorded. The obtained data were processed according to the formula [(times of scratching in solvent control group−times of scratching in administration group)/times of scratching in solvent control group×100] to calculate the inhibition ratio on scratching. Statistical analysis was performed with Graphpad Prism 8 software, and fitting was performed to obtain the ED50 value.

[3] = system: haemodialysis subjects with pruritus; assay: Phase II clinical study of safety, pharmacokinetics and efficacy in haemodialysis subjects; format: in vivo, human
Experimental: For compound 1, a multi-centre, randomized, double-blind, placebo-controlled phase II clinical trial for evaluating the safety, pharmacokinetics and efficacy of compound 1 injection in haemodialysis subjects was performed. This study was divided into two phases.
Phase I was a dose-escalation, randomized, double-blind, placebo-controlled study of multiple intravenous administration within 1 week in haemodialysis subjects, in which 40 haemodialysis subjects were scheduled to be enrolled into 4 dose groups: 0.05 μg/kg, 0.15 μg/kg, 0.30 μg/kg and 0.80 μg/kg, with 10 subjects in each group (including 2 subjects in placebo group), and the experimental drug was administered 3 times in each dose group on D1, D3 and D5, respectively.
Phase II was a randomized, double-blind, placebo-controlled study of administration for 12 weeks in haemodialysis subjects with moderate or more severe pruritus. According to the results of phase I study, two dose groups (0.3 μg/kg and 0.6 μg/kg) and a placebo group as control were selected for phase II study, in which 90 haemodialysis subjects with moderate or more severe pruritus were scheduled to be enrolled and assigned to the above-mentioned three groups according to a ratio of 1:1:1, with 30 subjects scheduled to be enrolled in each group, and compound 1 injection or placebo was administered, respectively.

[4] = system: compound 48/80-induced scratching behaviour in mice; assay: Antipruritic effect in mouse models with pruritus induced by compound 48/80, intravenous administration; format: in vivo, ICR mice
Experimental: as §1, with “then administered intravenously with” for “then”, “saline.” for “saline were administered by nasal drip.”

[5] = 15 min before serotonin hydrochloride intradermal, scratching within 60 min
[6] = 15 min before compound 48/80 s.c., scratching within 30 min
[7] = maintenance haemodialysis, dose of 0.05 μg/kg to 0.80 μg/kg
[8] = maintenance haemodialysis, multiple times a week for consecutive 12 weeks
[9] = phase I, 0.05-0.80 μg/kg i.v. on D1, D3, D5, each group after treatment
[10] = phase II, 0.3 and 0.6 μg/kg, 12 weeks, each group after treatment

## CC(=O)N1CC2(CCN(C(=O)[C@@H](CCCCN)NC(=O)[C@@H](CC(C)C)NC(=O)[C@@H](Cc3ccccc3)NC(=O)[C@H](N)Cc3ccccc3)CC2)C1 [Compound 1, (2R)—N-[(1R)-1-(2-acetyl-2,7-diazaspiro[3.5]nonane-7-carbonyl)-5-amino-pentyl]-2-[[(2R)-2-[[(2R)-2-amino-3-phenyl-propionyl]amino]-3-phenylpropionyl]amino]-4-methyl-pentanamide]
[1]
  inhibition of serotonin hydrochloride-induced scratching behaviour: inhibited the serotonin hydrochloride-induced scratching behaviour in rats in a dose-dependent manner
[1]; [5]
  ED50 value (inhibition ratio on scratching): 0.03 mg/kg
  antipruritic effective dose: 0.03 mg/kg
[2]
  inhibition of compound 48/80-induced scratching behaviour: inhibited the compound 48/80-induced scratching behaviour in mice in a dose-dependent manner
[2]; [6]
  ED50 value (inhibition ratio on scratching): 2.72 mg/kg
  antipruritic effective dose: 0.3 mg/kg
[3]; 0.30 μg/kg group
  improvement compared to the placebo group: more significant improvement
  maintenance of therapeutic effects after discontinuation: good maintenance of therapeutic effects after discontinuation
[3]; [7]
  safety: generally safe
  serious adverse events related to the experimental drug: no serious adverse events related to the experimental drug
  withdrawal tendency after discontinuation: no obvious withdrawal tendency after discontinuation
[3]; [8]
  overall quality of life: improved
  pruritus symptoms in patients with chronic kidney diseases: could be effectively relieved
[3]; [9]
  NRS scores: all decreased compared to baseline
  total score of Skindex-16 scale: decreased
[3]; [10]
  NRS scores: all decreased compared to baseline
  total score and dimension scores of 5-D scale: all decreased compared to baseline
  total score and dimension scores of Skindex-16 scale: all decreased compared to baseline
[4]
  inhibition of compound 48/80-induced scratching behaviour: inhibited the compound 48/80-induced scratching behaviour in mice in a dose-dependent manner
[4]; [6]
  ED50 value (inhibition ratio on scratching): 0.09 mg/kg
  antipruritic effective dose: 0.03 mg/kg
